Results as given in ChEMBL document CHEMBL1131686, “Synthesis and biological activities of topoisomerase I inhibitors, 6-N-amino analogues of NB-506” (Bioorg Med Chem Lett, 1999).

Experiments:
[1] = tested on: Mus musculus; assay: Cytotoxicity against human stomach cancer cells (MKN-45) implanted subcutaneously into a side flank of nude mice; format: functional, Cancer cell lines
[2] = Lethal dose after intravenous administration (5 times/week for 2 weeks after tumor grew to 0.2 cme3 or larger) in mice; format: toxicity; conditions: mouse, in vivo, 336 h
[3] = tested on: MKN-45; assay: Cytotoxicity against human stomach cancer cells (MKN-45) after intravenous administration (5 times/week for 2 weeks after tumor grew to 0.2 cme3 or larger); format: functional, cell-based; conditions: MKN-45, 336 h
[4] = Ratio of LD10 to that of GID75 was determined; expressed as safety margin; format: functional
[5] = tested on: P388; assay: Effect on the formation of protein-DNA complex in P388 cells K+/SDS method; format: functional, Mus musculus
[6] = molecular target: DNA topoisomerase II (Homo sapiens, UniProt P11388+Q02880); assay: In vitro activity against topoisomerase-2 mediated cleavage of supercoiled pBR322 plasmid DNA; format: functional
[7] = molecular target: Protein kinase C alpha type (Homo sapiens, UniProt P17252); assay: In vitro activity evaluated against protein kinase C (using histone II-As as a substrate)
[8] = tested on: MKN-45; assay: In vitro cytotoxicity (CTX) against human stomach cancer cells (MKN-45) using sulforhodamine B dye-staining method; format: functional, cell-based
[9] = tested on: P388; assay: In vitro cytotoxicity (CTX) against murine leukemia cells (P388) using colorimetric tetrazolium-formazan method; format: functional, cell-based; conditions: Mus musculus
[10] = molecular target: T1, DNA topoisomerase 1 (Homo sapiens, UniProt P11387); assay: In vitro activity against topoisomerase-1 mediated cleavage of supercoiled pBR322 plasmid DNA; format: functional
T1 sequence (P11387 whole entry): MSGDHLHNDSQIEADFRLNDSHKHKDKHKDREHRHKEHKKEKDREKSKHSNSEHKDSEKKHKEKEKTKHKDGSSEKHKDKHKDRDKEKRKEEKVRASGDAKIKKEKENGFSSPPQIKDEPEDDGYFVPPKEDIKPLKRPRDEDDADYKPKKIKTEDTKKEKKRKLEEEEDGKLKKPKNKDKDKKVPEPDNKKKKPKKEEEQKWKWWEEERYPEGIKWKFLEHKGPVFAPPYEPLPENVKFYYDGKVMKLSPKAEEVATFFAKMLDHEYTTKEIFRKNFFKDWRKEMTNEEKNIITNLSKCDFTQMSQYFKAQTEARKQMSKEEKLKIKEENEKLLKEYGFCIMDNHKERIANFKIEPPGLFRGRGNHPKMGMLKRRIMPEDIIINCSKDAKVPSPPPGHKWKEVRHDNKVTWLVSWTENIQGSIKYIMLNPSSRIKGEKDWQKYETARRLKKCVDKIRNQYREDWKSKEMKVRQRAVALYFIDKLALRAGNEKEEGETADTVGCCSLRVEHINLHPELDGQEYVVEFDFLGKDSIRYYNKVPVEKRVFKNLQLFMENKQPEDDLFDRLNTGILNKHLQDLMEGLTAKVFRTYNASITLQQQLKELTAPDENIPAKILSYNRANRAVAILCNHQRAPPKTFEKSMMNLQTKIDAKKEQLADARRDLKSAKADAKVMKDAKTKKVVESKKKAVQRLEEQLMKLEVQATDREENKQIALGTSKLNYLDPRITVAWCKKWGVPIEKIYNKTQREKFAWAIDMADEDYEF

[11] = molecular target: Epidermal growth factor receptor (Homo sapiens, UniProt P00533); assay: In vitro activity against Epidermal growth factor receptor (using poly(Glu4Tyr1) as a substrate)
Chain of Epidermal growth factor receptor (P00533 whole entry): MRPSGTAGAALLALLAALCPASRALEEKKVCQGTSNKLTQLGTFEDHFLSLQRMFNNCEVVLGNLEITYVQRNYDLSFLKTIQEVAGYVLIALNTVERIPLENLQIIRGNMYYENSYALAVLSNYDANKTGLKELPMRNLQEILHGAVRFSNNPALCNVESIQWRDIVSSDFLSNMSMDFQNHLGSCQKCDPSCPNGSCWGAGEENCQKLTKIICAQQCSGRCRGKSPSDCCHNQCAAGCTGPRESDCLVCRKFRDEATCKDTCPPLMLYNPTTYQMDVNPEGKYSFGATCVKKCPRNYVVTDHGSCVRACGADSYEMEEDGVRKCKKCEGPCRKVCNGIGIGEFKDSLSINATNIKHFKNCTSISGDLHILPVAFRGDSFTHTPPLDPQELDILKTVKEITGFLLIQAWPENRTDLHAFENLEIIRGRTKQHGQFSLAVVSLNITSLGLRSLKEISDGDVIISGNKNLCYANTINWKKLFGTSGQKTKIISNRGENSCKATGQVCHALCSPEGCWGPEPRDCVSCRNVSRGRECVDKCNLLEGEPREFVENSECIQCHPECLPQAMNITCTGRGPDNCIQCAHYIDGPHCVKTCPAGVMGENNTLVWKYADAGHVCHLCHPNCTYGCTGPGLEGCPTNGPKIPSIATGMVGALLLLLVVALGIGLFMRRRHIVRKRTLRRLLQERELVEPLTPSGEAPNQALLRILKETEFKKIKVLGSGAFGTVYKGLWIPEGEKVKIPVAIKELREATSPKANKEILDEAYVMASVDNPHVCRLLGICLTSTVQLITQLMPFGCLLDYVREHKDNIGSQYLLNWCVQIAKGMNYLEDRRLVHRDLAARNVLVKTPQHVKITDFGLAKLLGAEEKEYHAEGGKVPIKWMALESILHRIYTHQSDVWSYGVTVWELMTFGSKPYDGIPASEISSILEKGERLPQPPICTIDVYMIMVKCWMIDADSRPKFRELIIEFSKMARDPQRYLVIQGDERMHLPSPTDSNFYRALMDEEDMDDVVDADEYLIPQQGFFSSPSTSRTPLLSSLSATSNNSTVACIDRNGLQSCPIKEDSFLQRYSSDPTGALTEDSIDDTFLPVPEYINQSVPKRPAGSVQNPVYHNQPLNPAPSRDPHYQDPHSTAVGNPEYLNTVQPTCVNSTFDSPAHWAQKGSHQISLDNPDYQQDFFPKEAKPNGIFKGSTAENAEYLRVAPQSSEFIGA

O=CNN1C(=O)c2c(c3c4cccc(O)c4n(C4OC(CO)C(O)C(O)C4O)c3c3[nH]c4c(O)cccc4c23)C1=O (stereo unspecified)
GID75 [1]: 1152 mg/me2
LD10 [2]: 1600 mg/me2
IC50 [3]: 310 nM
Activity [4]: 1.4 Ratio
EC200 [5]: 1.4 µM
EC50 [6]: > 50000 nM
IC50 [7]: > 200000 nM
IC50 [8]: 310 nM
IC50 [9]: 75 nM
EC50 [10]: 700 nM
IC50 [11]: > 200000 nM
